Our source for the IC50 and Ki values is ChEMBL document CHEMBL1147886, “Synthesis and pharmacological evaluation of novel conformationally constrained homologues of glutamic acid” (Eur J Med Chem, 2007).

Usually pIC50 stands for the IC50 on a negative log10 scale, so that one unit is a factor of ten. Lower therefore signals a large IC50. As a reminder, the pKi is the negative decadic logarithm of the Ki, by convention in mol/L.

The structures appear in SMILES notation. pIC50, pKi: −log10 of the molar value.

Format in all cases: cell membranes
Assay [1] in a line: Displacement of [3H]AMPA from AMPA receptor in rat cortical membrane. On the technique in general: Loss of bound radioactivity is the signal in a displacement assay; it reports binding, not function.
Assay [2] is described as follows: Displacement of [3H]KA from KA receptor in rat cortical membrane.
A further assay concerns the target Glutamate NMDA receptor. In words: Displacement of [3H]CGP-39653 from NMDA receptor in rat cortical membrane.

For the compound `O=C(O)[C@@H]1C[C@@]2(CN1)CC(O)=NO2`, the pIC50 in assay [1] and in assay [2] was under 4.00 in each case. Besides, the pKi on Glutamate NMDA receptor is under 4.00.

With `O=C(O)[C@H]1C[C@]2(CN1)CC(O)=NO2`, the pIC50 in assay [1] and in assay [2] was under 4.00 each time. The compound also gave a pKi at Glutamate NMDA receptor of under 4.00.

In the case of `O=C(O)C1=NO[C@]2(CN[C@H](C(=O)O)C2)C1`, the pIC50 in assay [1] and in assay [2] was under 4.00 in each case. The same compound gave a pKi on Glutamate NMDA receptor of under 4.00.

Regarding `O=C(O)C1=NO[C@]2(CN[C@@H](C(=O)O)C2)C1`, the pIC50 in assay [1] and in assay [2] was under 4.00 throughout. Further, the pKi at Glutamate NMDA receptor was under 4.00.

On to `O=C(O)[C@@H]1C[C@]2(CN1)CC(O)=NO2`, for which the pIC50 in assay [1] and in assay [2] was under 4.00 in each case. In addition, the pKi on Glutamate NMDA receptor is under 4.00.

With `O=C(O)[C@H]1C[C@@]2(CN1)CC(O)=NO2`, the pIC50 in assay [1] and in assay [2] was under 4.00 in each case. Moreover, the pKi at Glutamate NMDA receptor was under 4.00.

`O=C(O)C1=NO[C@@]2(CN[C@H](C(=O)O)C2)C1`: the pIC50 in assay [1] and in assay [2] was under 4.00 each time. Moreover, the pKi at Glutamate NMDA receptor was under 4.00.

Turning to `O=C(O)C1=NO[C@@]2(CN[C@@H](C(=O)O)C2)C1`, the pIC50 in assay [1] and in assay [2] was under 4.00 each time. The compound also gave a pKi on Glutamate NMDA receptor of under 4.00.

Consider `N[C@@H](CCCP(=O)(O)O)C(=O)O`, for which the pIC50 in assay [1] and in assay [2] was under 4.00 in each case.

On to `N[C@H](CCCP(=O)(O)O)C(=O)O`, for which the pIC50 in assay [1] and in assay [2] was under 4.00 throughout.

For the compound `N[C@H](C[C@H]1CC(C(=O)O)=NO1)C(=O)O` (racemic), the pIC50 in assay [1] and in assay [2] was under 4.00 each time.

On to `N[C@]1(C(=O)O)C[C@H]1[C@H]1CC(C(=O)O)=NO1` (racemic), for which the pIC50 in assay [1] and in assay [2] was under 4.00 throughout. On Glutamate NMDA receptor, this compound gave a pKi of under 4.00.

Consider `N[C@]1(C(=O)O)C[C@H]1[C@@H]1CC(C(=O)O)=NO1` (racemic), for which the negative logarithm of the IC50 (pIC50) in assay [1] and in assay [2] was under 4.00 in each case. The pKi at Glutamate NMDA receptor was 4.47.

Turning to `N[C@]1(C(=O)O)C[C@H]1[C@H]1CC(O)=NO1` (racemic), the pIC50 in assay [1] and in assay [2] was under 4.00 throughout. The pKi at Glutamate NMDA receptor was under 4.00.

As to `N[C@H](C[C@@H]1CC(C(=O)O)=NO1)C(=O)O` (racemic), the pIC50 in assay [1] and in assay [2] was under 4.00 in each case.

For `N[C@]1(C(=O)O)C[C@H]1[C@@H]1CC(O)=NO1` (racemic), the pIC50 in assay [1] and in assay [2] was under 4.00 throughout. On Glutamate NMDA receptor, this compound gave a pKi of 4.89.
